Measurements as given in the supplement of paper PMC8960247.
± gives the standard error.

How the values were obtained:
[1] = tested on: 621-102 (TSC2-deficient); assay: relative viability vs DMSO; higher = less cytotoxic; conditions: serum: 10% FBS, 72 h
[2] = tested on: 621-103 (TSC2-rescued); assay: as above; conditions: serum: 10% FBS, 72 h
[3] = tested on: 621-102 (TSC2-deficient); assay: relative viability vs DMSO (fraction); higher = less cytotoxic; conditions: serum: 0.1% FBS, 72 h
[4] = tested on: UMB1949 (TSC2-deficient); assay: as above; conditions: serum: 0.1% FBS, 72 h;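 note: renal angiomyolipoma cell lines screened in 384-well plates, viability normalized per plate to DMSO-treated cells, each plate carrying 50 nM rapamycin and 1 µM staurosporine controls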

SMILES	relative viability ([1]; 0.0001 µM) [%]	relative viability ([1]; 0.001 µM) [%]	relative viability ([1]; 0.01 µM) [%]	relative viability ([1]; 0.1 µM) [%]	relative viability ([1]; 1 µM) [%]	relative viability ([1]; 10 µM) [%]	relative viability ([2]; 0.0001 µM) [%]	relative viability ([2]; 0.001 µM) [%]	relative viability ([2]; 0.01 µM) [%]	relative viability ([2]; 0.1 µM) [%]	relative viability ([2]; 1 µM) [%]	relative viability ([2]; 10 µM) [%]	relative viability ([3]; 0.0128 nM)	relative viability ([3]; 0.064 nM)	relative viability ([3]; 0.32 nM)	relative viability ([3]; 1.6 nM)	relative viability ([3]; 8 nM)	relative viability ([3]; 40 nM)	relative viability ([3]; 200 nM)	relative viability ([3]; 1000 nM)	relative viability ([3]; 5000 nM)	relative viability ([4]; 0.0128 nM)	relative viability ([4]; 0.064 nM)	relative viability ([4]; 0.32 nM)	relative viability ([4]; 1.6 nM)	relative viability ([4]; 8 nM)	relative viability ([4]; 40 nM)	relative viability ([4]; 200 nM)	relative viability ([4]; 1000 nM)	relative viability ([4]; 5000 nM)
CN(C)CC[C@H](CSc1ccccc1)Nc1ccc(S(=O)(=O)NC(=O)c2ccc(N3CCN(Cc4ccccc4-c4ccc(Cl)cc4)CC3)cc2)cc1[N+](=O)[O-] [ABT-737]	122.1 ± 0.59	118 ± 1.4	113 ± 1.9	107 ± 3.3	101 ± 3.6	43.2 ± 2	101 ± 1.5	99.05 ± 0.48	97.82 ± 0.7	98.61 ± 0.42	91.97 ± 0.57	43.5 ± 2.2	0.888	0.796	0.677	0.564	0.491	0.175	0.00664	0.00508	0.00348	1.02	0.975	0.941	0.965	0.92	0.869	0.803	0.197	0.00643
Nc1ncnc2c1c(-c1cccc(OCc3ccccc3)c1)cn2C1CC(CN2CCCC2)C1 (stereo not given) [NVP-ADW742]	74.8 ± 0.9	61.6 ± 3.1	69.9 ± 9.3	66.3 ± 5.1	77.3 ± 6	70.1 ± 4.5	98.4 ± 1	96 ± 1.5	94.3 ± 2.1	96.7 ± 2.4	92.3 ± 6	59.3 ± 0.83	1.03	1.02	1.03	1.04	1.05	0.948	0.817	0.724	0.0714	1.02	1.04	1.13	1.14	1.07	1.09	0.995	0.273	0.0444
O=C(/C=C/c1cccc(S(=O)(=O)Nc2ccccc2)c1)NO [Belinostat(PXD101)]	109 ± 3.7	111.1 ± 1.1	107 ± 1.1	94.4 ± 1.9	85.6 ± 1.9	44.6 ± 0.66	97.7 ± 1.1	97 ± 2.6	97.46 ± 0.88	92.7 ± 1.6	77.17 ± 0.11	9.88 ± 0.36	1.07	1.04	1.01	1.03	1.18	0.923	0.646	0.271	0.0621	1.11	0.925	1.01	0.986	0.987	0.854	0.277	0.00312	0.001
CC(C)C[C@@H](C(=O)N[C@H](C(=O)OC1CCCC1)c1ccccc1)[C@H](O)C(=O)NO [CHR-2797]	112 ± 1.6	116 ± 2.4	114.53 ± 0.03	102 ± 1.6	89.8 ± 1.5	82 ± 2.1	103 ± 2.1	105.3 ± 0.65	115 ± 1.4	111 ± 7.5	104.4 ± 0.14	89.6 ± 2.7	0.86	0.866	0.628	0.884	0.614	0.512	0.414	0.345	0.144	1.06	0.998	0.978	1.02	0.982	0.804	0.875	0.595	0.0151
Cc1cc(Nc2cc(CN3CCOCC3)c3nc(C)c(Cc4ccc(Cl)cc4F)n3n2)n[nH]1	109 ± 2.8	108 ± 1.6	97.1 ± 3.9	101 ± 1.6	95.8 ± 1.3	26.9 ± 0.53	106.8 ± 0.47	96.94 ± 0.68	90.05 ± 0.81	98.4 ± 5.3	87.2 ± 2.1	8.52 ± 0.44	1.15	1.05	1.08	0.98	1.05	0.925	0.787	0.014	0.000958	1.1	1	1.03	0.938	1	0.885	0.753	0.0134	0.000916
Cc1cnc(NC(=O)Nc2cc(Br)c(C)cc2OC[C@@H]2CNCCO2)cn1	72.1 ± 3.7	87.9 ± 6.2	95 ± 2.5	75.8 ± 2.3	29.1 ± 0.86	26.8 ± 0.86	109.5 ± 0.45	103.7 ± 0.67	102.8 ± 0.59	109 ± 4.1	84.09 ± 0.55	33.7 ± 0.83	0.474	0.234	0.185	0.103	0.0749	0.0522	0.0206	0.0139	0.0111	0.911	0.655	0.375	0.158	0.27	0.00749	0.0015	0.00258	0.00665
Nc1cccc2c1C(=O)N(C1CCC(=O)NC1=O)C2=O (stereo not given) [Pomalidomide]	107 ± 1.1	112 ± 1.7	108 ± 3.3	116 ± 1.5	118 ± 2.1	118 ± 4	104.77 ± 0.07	102.3 ± 0.72	101.3 ± 0.69	96.9 ± 1.3	98.59 ± 0.92	100.7 ± 0.95	1.18	0.947	1.03	0.975	0.951	1.02	0.939	0.985	0.951	1.06	0.959	1.04	1.03	1.18	1.04	1.07	0.943	0.912
COCC[n+]1c2c(n(Cc3cnccn3)c1C)C(=O)c1ccccc1C2=O [YM155]	119 ± 4.4	123 ± 2.9	85.19 ± 0.73	14.7 ± 0.34	2.3 ± 0.11	1.07 ± 0.06	103 ± 1.1	97.14 ± 0.26	6.98 ± 0.72	3.13 ± 0.25	1.38 ± 0.11	1.32 ± 0.092	1.26	1.18	1.05	1.14	1.01	0.797	0.0467	0.0022	0.000631	0.913	0.906	0.926	0.0628	0.00285	0.00186	0.00176	0.000862	0.000862
